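Cells were grown in 96-well plates and exposed to each compound for 48 hours at five concentrations; endpoints were interpolated linearly between bracketing concentrations, or set to the highest concentration if not reached. GI50 marks 50% less growth.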 Calls of active or inactive are those of the source. No stated cut-off is given here; in the data, active = GI50 up to about 1.1 µM and inactive = higher.
Tests used:
Test in all cases: NCI-60 cell line screen, 48 h
CAKI-1 = test system: CAKI-1
HOP-62 = test system: HOP-62
SF-539 = test system: SF-539
786-0 = test system: 786-0
OVCAR-8 = test system: OVCAR-8
NCI-H226 = test system: NCI-H226
SR = test system: SR
IGROV-1 = test system: IGROV-1
HOP-92 = test system: HOP-92
NCI/ADR-RES = test system: NCI/ADR-RES
SF-268 = test system: SF-268
U-251 = test system: U-251
RPMI-8226 = test system: RPMI-8226
DU-145 = test system: DU-145
KM12 = test system: KM12
NCI-H23 = test system: NCI-H23
MOLT-4 = test system: MOLT-4
PC-3 = test system: PC-3
HCT-15 = test system: HCT-15
HCT-116 = test system: HCT-116
MDA-N = test system: MDA-N
TK-10 = test system: TK-10
SK-MEL-28 = test system: SK-MEL-28
CCRF-CEM = test system: CCRF-CEM
OVCAR-4 = test system: OVCAR-4
SK-MEL-2 = test system: SK-MEL-2
RXF 393 = test system: RXF 393
UACC-62 = test system: UACC-62
LOX IMVI = test system: LOX IMVI
OVCAR-3 = test system: OVCAR-3
BT-549 = test system: BT-549
EKVX = test system: EKVX
SK-OV-3 = test system: SK-OV-3
SW-620 = test system: SW-620
A549 = test system: A549
MCF7 = test system: MCF7
MDA-MB-231 = test system: MDA-MB-231
K562 = test system: K562
MDA-MB-435 = test system: MDA-MB-435
SNB-75 = test system: SNB-75
SF-295 = test system: SF-295
Hs-578T = test system: Hs-578T
Malme-3M = test system: Malme-3M
T47D = test system: T47D
NCI-H522 = test system: NCI-H522
UO-31 = test system: UO-31
HL-60 = test system: HL-60
SK-MEL-5 = test system: SK-MEL-5
HT-29 = test system: HT-29
SN12C = test system: SN12C
COLO 205 = test system: COLO 205
ACHN = test system: ACHN
OVCAR-5 = test system: OVCAR-5
UACC-257 = test system: UACC-257
A498 = test system: A498
NCI-H460 = test system: NCI-H460
HCC 2998 = test system: HCC 2998
M14 = test system: M14
SNB-19 = test system: SNB-19

SMILES: CCN(CC)C(=S)SC1C(=O)NC(=O)NC1=O
- GI50 (CAKI-1): > 100 µM (inactive)
- GI50 (HOP-62): > 100 µM (inactive)
- GI50 (SF-539): > 100 µM (inactive)
- GI50 (786-0): > 100 µM (inactive)
- GI50 (OVCAR-8): > 100 µM (inactive)
- GI50 (NCI-H226): > 100 µM (inactive)
- GI50 (SR): > 100 µM (inactive)
- GI50 (IGROV-1): > 100 µM (inactive)
- GI50 (HOP-92): > 100 µM (inactive)
- GI50 (NCI/ADR-RES): 0.6 µM (active)
- GI50 (SF-268): > 100 µM (inactive)
- GI50 (U-251): > 100 µM (inactive)
- GI50 (RPMI-8226): > 100 µM (inactive)
- GI50 (DU-145): > 100 µM (inactive)
- GI50 (KM12): > 100 µM (inactive)
- GI50 (NCI-H23): > 100 µM (inactive)
- GI50 (MOLT-4): > 100 µM (inactive)
- GI50 (PC-3): > 100 µM (inactive)
- GI50 (HCT-15): > 100 µM
- GI50 (HCT-116): > 100 µM (inactive)
- GI50 (MDA-N): > 100 µM (inactive)
- GI50 (TK-10): > 100 µM (inactive)
- GI50 (SK-MEL-28): > 100 µM (inactive)
- GI50 (CCRF-CEM): > 100 µM (inactive)
- GI50 (OVCAR-4): > 100 µM (inactive)
- GI50 (SK-MEL-2): > 100 µM (inactive)
- GI50 (RXF 393): > 100 µM (inactive)
- GI50 (UACC-62): > 100 µM (inactive)
- GI50 (LOX IMVI): > 100 µM (inactive)
- GI50 (OVCAR-3): > 100 µM (inactive)
- GI50 (BT-549): > 100 µM (inactive)
- GI50 (EKVX): > 100 µM (inactive)
- GI50 (SK-OV-3): > 100 µM (inactive)
- GI50 (SW-620): > 100 µM (inactive)
- GI50 (A549): > 100 µM (inactive)
- GI50 (MCF7): > 100 µM (inactive)
- GI50 (MDA-MB-231): > 100 µM (inactive)
- GI50 (K562): > 100 µM (inactive)
- GI50 (MDA-MB-435): > 100 µM (inactive)
- GI50 (SNB-75): > 100 µM (inactive)
- GI50 (SF-295): > 100 µM (inactive)
- GI50 (Hs-578T): > 100 µM (inactive)
- GI50 (Malme-3M): > 100 µM (inactive)
- GI50 (T47D): > 100 µM (inactive)
- GI50 (NCI-H522): > 100 µM (inactive)
- GI50 (UO-31): > 100 µM (inactive)
- GI50 (HL-60): > 100 µM (inactive)
- GI50 (SK-MEL-5): > 100 µM (inactive)
- GI50 (HT-29): > 100 µM (inactive)
- GI50 (SN12C): > 100 µM (inactive)
- GI50 (COLO 205): > 100 µM (inactive)
- GI50 (ACHN): > 100 µM (inactive)
- GI50 (OVCAR-5): > 100 µM (inactive)
- GI50 (UACC-257): > 100 µM (inactive)
- GI50 (A498): 0.0106 µM (active)
- GI50 (NCI-H460): 0.017 µM (active)
- GI50 (HCC 2998): > 100 µM (inactive)

SMILES: CC1CCCC(C(O)CC2CC(=O)NC(=O)C2)C1O (stereo not given)
- GI50 (CAKI-1): > 100 µM (inactive)
- GI50 (HOP-62): > 100 µM (inactive)
- GI50 (SF-539): > 100 µM (inactive)
- GI50 (786-0): > 100 µM (inactive)
- GI50 (OVCAR-8): > 100 µM (inactive)
- GI50 (NCI-H226): > 100 µM (inactive)
- GI50 (SR): > 100 µM (inactive)
- GI50 (IGROV-1): > 100 µM (inactive)
- GI50 (HOP-92): > 100 µM (inactive)
- GI50 (NCI/ADR-RES): > 100 µM (inactive)
- GI50 (SF-268): > 100 µM (inactive)
- GI50 (U-251): > 100 µM (inactive)
- GI50 (RPMI-8226): > 100 µM (inactive)
- GI50 (DU-145): > 100 µM (inactive)
- GI50 (KM12): > 100 µM (inactive)
- GI50 (NCI-H23): > 100 µM (inactive)
- GI50 (MOLT-4): > 100 µM (inactive)
- GI50 (PC-3): > 100 µM (inactive)
- GI50 (HCT-15): > 100 µM
- GI50 (HCT-116): > 100 µM (inactive)
- GI50 (MDA-N): > 100 µM (inactive)
- GI50 (TK-10): > 100 µM (inactive)
- GI50 (SK-MEL-28): > 100 µM (inactive)
- GI50 (CCRF-CEM): > 100 µM (inactive)
- GI50 (OVCAR-4): > 100 µM (inactive)
- GI50 (SK-MEL-2): > 100 µM (inactive)
- GI50 (RXF 393): > 100 µM (inactive)
- GI50 (UACC-62): > 100 µM (inactive)
- GI50 (LOX IMVI): > 100 µM (inactive)
- GI50 (OVCAR-3): > 100 µM (inactive)
- GI50 (BT-549): > 100 µM (inactive)
- GI50 (EKVX): > 100 µM (inactive)
- GI50 (SK-OV-3): > 100 µM (inactive)
- GI50 (SW-620): > 100 µM (inactive)
- GI50 (A549): > 100 µM (inactive)
- GI50 (MCF7): > 100 µM (inactive)
- GI50 (MDA-MB-231): > 100 µM (inactive)
- GI50 (K562): > 100 µM (inactive)
- GI50 (MDA-MB-435): > 100 µM (inactive)
- GI50 (SNB-75): > 100 µM (inactive)
- GI50 (SF-295): > 100 µM (inactive)
- GI50 (Hs-578T): > 100 µM (inactive)
- GI50 (M14): > 100 µM (inactive)
- GI50 (Malme-3M): > 100 µM (inactive)
- GI50 (T47D): > 100 µM (inactive)
- GI50 (UO-31): > 100 µM (inactive)
- GI50 (HL-60): > 100 µM (inactive)
- GI50 (SK-MEL-5): > 100 µM (inactive)
- GI50 (HT-29): > 100 µM (inactive)
- GI50 (SN12C): > 100 µM (inactive)
- GI50 (COLO 205): > 100 µM (inactive)
- GI50 (ACHN): > 100 µM (inactive)
- GI50 (OVCAR-5): > 100 µM (inactive)
- GI50 (UACC-257): > 100 µM (inactive)
- GI50 (A498): > 100 µM (inactive)
- GI50 (NCI-H460): > 100 µM (inactive)
- GI50 (HCC 2998): > 100 µM (inactive)
- GI50 (SNB-19): > 100 µM (inactive)

From ChEMBL document CHEMBL1201862, “PubChem BioAssay data set” (2004)
